# Results reported in US7592326B2, “Method for stimulating the immune, inflammatory or neuroprotective response” (priority 2004, dated 2009).
# What was measured:
# DCs [1] = assay: Mannose receptor-mediated endocytosis (FITC-dextran uptake); type: cell-based, human; settings: DCs treated 24 h; FIG. 2
# Procedure: Mannose receptor (MR)-mediated endocytosis was measured as the cellular uptake of FITC-dextran (DX) and quantified by flow cytometry. A total of 2×10^5 cells per sample were incubated in media containing FITC-DX (1 mg/ml) (Mv 40,000). After 15 min of incubation at 37° C. or 4° C. (as negative control), cells were washed four times with cold PBS containing 1% FCS and 0.01% NaN3 and fixed in 1% formaldehyde. The background (cells pulsed at 4° C.) was always subtracted.
# anti-ClfA IgG antibody = assay: Adjuvant effect in vaccination with S. aureus ClfA (serum ELISA); type: in vivo, CD-1 female mice
# Procedure: To evaluate the capacity of c-di-GMP to increase antibody production in the mouse (adaptive immune response), the cyclic dinucleotide was used as adjuvant for vaccination with S. aureus ClfA recombinant protein (a surface adhesion protein of S. aureus binding fibrinogen), as previously done for ClfA alone without adjuvant (Brouillette et al., 2002). Two groups of eight CD-1 female mice were vaccinated intramuscularly with 100 μl of saline containing 25 μg of ClfA. For one of the groups, the solution injected also contained 200 nmol of c-di-GMP. A volume of 50 ul was then injected into both quadriceps. This procedure was repeated two weeks after, for a second injection. Twelve days later, i.e. 26 days after the initial injections, blood samples were taken and incubated at 35° C. for an hour to allow coagulation, and then centrifuged at 13,000 g for 10 min at 4° C. Sera were harvested and kept at −20° C. until tested. The institutional ethics committee on animal experimentation of the Faculté des sciences of Université de Sherbrooke approved these experiments and were carried out following the guidelines of the Canadian Council on Animal Care.
# Enzyme-linked immunosorbant assays (ELISA) were used to determine the presence of IgG antibodies against the ClfA antigen in the mouse serum, as previously described (Brouillette et al., 2002). Polystyrene Maxisorp 96-well plates (Nalge-Nunc International) were coated for 2 h with 50 μl of recombinant ClfA (domaine A) protein at a concentration of 10 μg/ml in carbonate/bicarbonate buffer at pH 9.6. Following saturation of the wells with a solution of powdered milk in PBS (5% w/v), overnight at 4° C., four-fold dilutions of sera (1/1000 to 1/64000) were added and incubated for 2 h at 35° C. and then overnight at 4° C. Biotinylated anti-mouse IgG (1/1000) was added and incubated for 2 h at 35° C. After 1 h of incubation with streptavidin-HRP (Amersham Pharmacia Biotech) diluted 1/500, 100 μl of Sure Blue TMB Peroxidase Substrate (KPL) was added. The enzyme reaction was stopped by the addition of 50 μl of 1N HCl after 6 min of incubation. Between each step, three washes with PBS-Tween 0.05% were carried out. The optical density (OD) was read on a plate reader (Bio-Tek Instruments) at 450 nm.
# ELISA assays were carried out as for the total IgG assay but the secondary antibody was either mouse anti-IgG1-HRP or mouse anti-IgG2a-HRP (BD Pharmingen) and four-fold dilutions of sera form 1/250 to 1/16000 were assayed. Quantitation of mouse antibodies was achieved as for the total IgG assay but the development of coloration was allowed for 10 min. […] For the statistical analysis of ELISA results, the O.D. data for mice vaccinated with the c-di-GMP molecule as adjuvant were matched up to the corresponding data (isotype and dilution) where mice were injected with saline instead of c-di-GMP. One way analysis of variance (ANOVA) was used with the Bonferroni post-hoc test to account for multiple comparisons (Graphpad InStat software, version 3.06).
# DCs [2] = assay: DC apoptosis (FITC-Annexin V/PI double staining); type: cell-based, human; settings: 24 h
# Procedure: FITC-Annexin V/Propidium Iodure (PI) double staining was used to detect apoptosis of DCs treated with c-di-GMP. Immature and mature DCs, untreated or treated with c-di-GMP for 24 h, were harvested and washed twice with ice cold PBS; specific binding of FITC-annexin V and staining with PI was performed with an apoptosis detection kit accordingly to the manufacturer's instructions. The cells were then analyzed by flow cytometry.
# [3] = serum dilution of 1/1000, FIG. 7B
compound,measurement,setting,value
"Nc1nc(=O)c2ncn([C@@H]3OC4COP(=O)(O)O[C@H]5[C@@H](O)[C@H](n6cnc7c(=O)nc(N)[nH]c76)O[C@@H]5COP(=O)(O)OC4C3O)c2[nH]1 (some centres unmarked) [c-di-GMP, Bis(3′→5′)-cyclic diguanylic acid]",uptake of FITC-DX (MR-mediated endocytosis),DCs [1],did not induce any major effect
same,"ELISA optical density, IgG1 and IgG2a isotypes","anti-ClfA IgG antibody; serum dilution 1/16000, c-di-GMP treated group",around 0.5
same,"ELISA optical density, total IgG","anti-ClfA IgG antibody; serum dilution 1/64000, c-di-GMP treated group",around 0.5
same,increase of IgG1 (optical density ratio c-di-GMP/saline),anti-ClfA IgG antibody; [3],3.6 times
same,increase of IgG2a (optical density ratio c-di-GMP/saline),anti-ClfA IgG antibody; [3],208.9 times
same,increase of total IgG (optical density ratio c-di-GMP/saline),anti-ClfA IgG antibody; [3],7.7 times
same,anti-ClfA IgG antibody titers compared with ClfA alone,"anti-ClfA IgG antibody; two i.m. injections, 200 nmol c-di-GMP + 25 μg ClfA, serum day 26, P<0.001",significantly higher
same,Early apoptosis (% of annexin V^+/PI^− cells),DCs [2]; cdiGMP 5 μM,23%
same,Late apoptosis (% of annexin V^+/PI^+ cells),DCs [2]; cdiGMP 5 μM,36%
same,Early apoptosis (% of annexin V^+/PI^− cells),DCs [2]; cdiGMP 50 μM,31%
same,Late apoptosis (% of annexin V^+/PI^+ cells),DCs [2]; cdiGMP 50 μM,40%
same,Early apoptosis (% of annexin V^+/PI^− cells),DCs [2]; cdiGMP 100 μM,18%
same,Late apoptosis (% of annexin V^+/PI^+ cells),DCs [2]; cdiGMP 100 μM,42%
same,effect on DC apoptosis,DCs [2]; immature and mature DCs,did not appear to have any effect
